In patent US20030180947A1, “Circadian control of stem/progenitor cell self-renewal and differentiation and of clock controlled gene expression” (priority 2001, published 2003):
“Also recorded” adds a separate entry of the source.

What was measured:
[1] = tested on: mper1 promoter; assay: Per1-luciferase reporter (pGL3-mPer1-7.2 kb) in transfected NIH 3T3 cells; assay type: cell-based, mouse; conditions: NIH 3T3, pGL3-mPer1-7.2 kb; 10^−6 M; 7 hours; FIG. 14
Source text: FIG. 14 is a bar graph illustrating the effects of neurotransmitter analog treatment on NIH 3T3 cells transfected with pGL3-mPer1-7.2kb, which contains luciferase under control of a 7.2 kb region of the mper1 promoter. Cells were exposed to 10^−6 M forskolin as a positive control, 10^−6 M isoproterenol (a beta-adrenergic agonist), 10^−6 M propranolol (a beta-adrenergic antagonist), 10^−6 M phenylephrine (an alpha-adrenergic agonist), and 10^−6 M pentolamine (an alpha-adrenergic antagonist) for 7 hours.
H1299 cells were maintained in RPMI1640 (Gibco) with 10% FBS (Hyclone). NIH3T3 cells were maintained in DMEM (Gibco) with 10% FBS (Hyclone). The day before transfection, 3×10^5 cells/well were plated onto six-well plates. Cells were transfected with 500 ng of each expression plasmid, 100 ng of the firefly luciferase reporter construct and 2 ng of the Renilla luciferase control plasmid (pRL-SV40; Promega) using SuperFect transfection reagent (Qiagen) following the manufacturer's instructions. The Renilla luciferase control plasmid was cotrasfected to normalize transfection efficiency. When expression plasmids were omitted, same amount of the pcDNA3 plasmid was used to substitute the expression plasmids. Forty hours after transfection, cells were washed once with 1×PBS (Sigma) and lysed with 500 μl of passive lysis buffer (Promega). Luciferase activity of the cell lysate was assayed with the Dual-Luciferase Reporter Assay System (Promega) using a luminometer (Optocomp1; MGM Instruments) as recommended by the manufacturer.
A Per1-luciferase reporter plasmid was constructed essentially as described above, using a 7.2 kb fragment of the promoter region from mper1, forming pGL3-mPer1-7.2 kb. NIH 3T3 cells were transfected with pGL3-mPer1-7.2 kb as described above and cells were exposed to 10^−6 M forskolin as a positive control, 10^−6 M isoproterenol (a beta-adrenergic agonist), 10^−6 M propranolol (a beta-adrenergic antogonist), 10^−6 M phenylephrine (an alpha-adrenergic agonist), and 10^−6 M pentolamine (an alpha-adrenergic antagonist). Cells were exposed to the neurotransmitters for 7 hours and luciferase activity was measured as described above.

[2] = tested on: mPer1 expression in the lin− cells; assay: Effect on mPer1 expression in lin− bone marrow cells (relative quantitative RT-PCR); assay type: cell-based, mouse; conditions: 200 nM dexamethasone or 1 μM PMA, 1 or 2 hours, vs ethanol control
Experimental: (§1) Bone marrow cells were incubated with ACK lysing buffer (0.15M NH4Cl, 1 mM KHCO3 and 0.1 mM Na2EDTA; pH7.2) at room temperature for 4 minutes to remove red blood cells. The lin^− (lineage marker-negative) bone marrow cells were obtained by depleting lineage marker-positive cells using the MACS magnetic separation system (Miltenyi Biotec, Auburn, Calif.) according to the manufacturer's instructions. The antibodies used were PE-labeled rat anti-mouse Gr-1, TER119, B220, CD4, CD8, and Mac-1 monoclonal antibodies (all from BD PharMingen, San Diego, Calif.). Briefly, the cells were incubated with the antibody cocktail for the lineage markers described above at 6-10° C. for 15 minutes. After two washes with 1×phosphate-buffered saline (PBS; Sigma, St. Louis, Mo.) supplemented with 0.5% FBS (Hyclone), the cells were incubated with anti-PE antibody-coated magnetic beads (Miltenyi Biotec) at 6-10° C. for 15 minutes. […]
(§2) For each RT-PCR experiment, samples from six time points were analyzed at the same time. […]
(§3) Within each PCR experiment, the linear range of amplification was first determined using cDNA pooled from 6 time points. […]
(§4) As a negative control, the products of the RT reactions, without reverse transcriptase, were subjected to the same PCR amplification. […] Their relative quantities were determined by using the Image-Pro Plus software (Media Cybernetics). […]

[3] = tested on: mPer2 expression in the lin− cells; assay: Effect on mPer2 expression in lin− bone marrow cells (relative quantitative RT-PCR); assay type: cell-based, mouse; conditions: 200 nM dexamethasone or 1 μM PMA, 1 or 2 hours, vs ethanol control
Experimental: as §1, §2, §3, §4

[4] = tested on: Rat-1 fibroblasts; conditions: cultured Rat-1 fibroblasts; Balsalobre et al. 2000; cited from earlier work
[5] = target: T1, mLATS2 fused to the GAL4 DNA binding domain (pGBKT7-mLATS2) (mouse, UniProt P04386 1-147; Q7TSJ6 1-1042); assay: yeast two-hybrid assay
T1 construct: Yeast two-hybrid construct made by inserting the Bsm I-Xho I fragment of pcDNA3-mLATS2 into pGBKT7-mLATS2b; also called mLATS2/2b

Molecule	expression levels relative to the forskolin positive control [1]	luciferase activity relative to control [1]	also measured
CC(C)NCC(O)c1ccc(O)c(O)c1 (stereo not shown) [isoproterenol]	slightly diminished	increased luciferase activity	–
Cc1ccc(N(CC2=NCCN2)c2cccc(O)c2)cc1 [pentolamine]	slightly diminished	increased luciferase activity	–
CNC[C@H](O)c1cccc(O)c1 [phenylephrine]	slightly diminished	increased luciferase activity	–
CCCCCCCCCCCCCC(=O)O[C@@H]1[C@@H](C)[C@@]2(O)[C@@H](C=C(CO)C[C@]3(O)C(=O)C(C)=C[C@@H]23)[C@@H]2C(C)(C)[C@]12OC(C)=O [PMA, phorbol-12-myristate-13-acetate]	–	–	mPer1 expression [2]: not affected; mPer2 expression [3]: neither dexamethasone nor PMA had a significant effect; Per1 induction and circadian gene expression [4]: induce mPer1 expression and elicit circadian gene expression; also recorded: induce immediate Per1 up-regulation and trigger circadian expression
mRBT1C76 fused to the GAL4 activation domain (pGADT7-mRBT1C76) (other, UniProt P04386 768-881, looked up, Yeast two-hybrid construct; also called C-terminal 76 amino acids of mRBT1) ANFNQSGNIADSSLSFTFTNSSNGPNLITTQTNSQALSQPIASSNVHDNFMNNEITASKIDDGNNSKPLSPGWTDQTAYNAFGITTGMFNTTTMDDVYNYLFDDEDTPPNPKKEPQNEIVSQADPVFLEALSSRYLGDSGLDDFFLDIDTSAVEKDVALPPPEPPHSLFCSPGSWEWNELDHIMEIILGS	–	–	binding result [5]: no binding
